Active and inactive are the calls of the source.
What was measured:
Format in all cases: functional, organism-based
[1] = test system: Influenza A virus; test: Inhibition of duck Influenza A virus A/DK/HK/313/78(H5N3)-mediated hemagglutinination of erythrocytes
[2] = test system: H3N2 subtype; test: Inhibition of human Influenza virus A/Aichi/2/68(H3N2)-mediated hemagglutinination of erythrocytes; details: A/Aichi/2/1968(H3N2)
[3] = test system: Influenza A virus; test: Inhibition of human Influenza virus A/PR/8/34 (H1N1)-mediated hemagglutinination of erythrocytes; details: A/Puerto Rico/8/1934(H1N1)

Measured: Activity

C=CC(=O)NCC(=O)N[C@H]1[C@H]([C@H](O)[C@H](O)CO)O[C@](SCCCCCCCCCCCC)(C(=O)O)C[C@@H]1O
active: all assays above

C=CC(=O)NCCCCCC(=O)N[C@H]1[C@H]([C@H](O)[C@H](O)CO)O[C@](SCCCCCCCCCCCC)(C(=O)O)C[C@@H]1O
active: all assays above

Source: ChEMBL document CHEMBL1153799, “Synthesis of sialic acid derivatives having a C=C double bond substituted at the C-5 position and their glycopolymers” (Bioorg Med Chem Lett, 2009)
